The text below walks through data of PMC9108036 (Biomedicine & Pharmacotherapy, 2022).

The test system of data set [1] is Omicron SARS-CoV-2 lentiviral pseudovirus. Type of data set: cell-based.
A short description of the next data set: in vitro. It counts as cell-based. The note with it: human.
Setting [2] is: Omicron pseudovirus, CaCo2 cells.

Like-named read-outs stand apart in the source and are kept apart here.

On to `CSc1ccc2c(c1)N(CCC1CCCCN1C)c1ccccc1S2` (centres unmarked) [Thioridazine], for which the “inhibition of Omicron pseudovirus entry (in words)” value (“inhibition” below) in data set [1] is reported as “enhanced inhibitory effects”.
Usually viability stands for a read-out of living cells in per cent, often relative to untreated cells. Regarding `CC(=O)O[C@@]12CO[C@@H]1C[C@H](O)[C@@]1(C)C(=O)[C@H](O)C3=C(C)[C@@H](OC(=O)[C@H](O)[C@@H](NC(=O)OC(C)(C)C)c4ccccc4)C[C@@](O)([C@@H](OC(=O)c4ccccc4)[C@H]21)C3(C)C` [Docetaxel], the viability at 10 µM in “in vitro” stood at 80.8 ± 3%.
`Clc1ccc(COC(Cn2ccnc2)c2ccc(Cl)cc2Cl)cc1` (centres unmarked) [Econazole]: the viability at 10 µM in “in vitro” was determined as 88.2 ± 1.8%.
`CN(C)CCCN1c2ccccc2Sc2ccc(Cl)cc21` [Chlorpromazine]: the viability at 10 µM in the data set “in vitro” was 88.6 ± 4.3%. Also, the “inhibition” value in data set [1] (setting [2]) is “enhanced inhibitory effects”.
Turning to `O=c1[nH]cc(F)c(=O)[nH]1` [Fluorouracil], in “in vitro”, the viability at 10 µM is 97 ± 1.7%.
Turning to `CN1CCN(CCCN2c3ccccc3Sc3ccc(C(F)(F)F)cc32)CC1` [Trifluoperazine], in data set [1] (setting [2]), the “inhibition” value is “enhanced inhibitory effects”.
In the case of `CCCCC[C@H](O)/C=C/[C@H]1[C@H](O)CC(=O)[C@@H]1CCCCCCC(=O)O` [Alprostadil], the viability at 10 µM in “in vitro” stood at 100 ± 2.9%.
As for `COC(=O)C1=C(C)NC(C)=C(C(=O)OCCCN2CCC(c3ccccc3)(c3ccccc3)CC2)[C@@H]1c1cccc([N+](=O)[O-])c1` [Dexniguldipine], the “inhibition” value in data set [1] is reported as “strong inhibition”.
On the same count and under the same terms, next, `CN(C)CCCN1c2ccccc2CCc2ccc(Cl)cc21` [Clomipramine]: “enhanced inhibitory effects”.
On to `Nc1nc(Cl)nc2c1ncn2[C@H]1C[C@H](O)[C@@H](CO)O1` [Cladribine], for which the viability at 10 µM in “in vitro” came to 108 ± 2.7%.
